Calls of active or inactive are those of the source. The calls are words filed in the database; no cut-off is given here.

Tested on in one series: not listed separately
In words: Binding affinity to Zn2+ using ZnCl2 at 20 uM after 5 mins by spectrophotometry.
Conditions: not given
With `Oc1cccc(CNc2ccccc2O)c1`, the result was inactive.
Still for that read-out and setting: for `Oc1ccc(/C=C/c2cc(O)cc(O)c2)cc1` [RESVERATROL] the value was “inactive”.

Tested on in the next series: not listed separately
In words: Binding affinity to Fe2+ using FeCl2 at 20 uM after 5 mins by spectrophotometry.
Conditions: not given
For the molecule `Oc1cccc(CNc2ccccc2O)c1`, the outcome was inactive.
Regarding `Oc1ccc(/C=C/c2cc(O)cc(O)c2)cc1` [RESVERATROL], the result was Active.

Tested on in another series: not listed separately
The series can be described thus: Binding affinity to Ca2+ using CaCl2 at 20 uM after 5 mins by spectrophotometry.
Conditions: not given
Consider `Oc1cccc(CNc2ccccc2O)c1`, for which the outcome was inactive.
On the same count and under the same terms, for `Oc1ccc(/C=C/c2cc(O)cc(O)c2)cc1` [RESVERATROL] the value was “inactive”.

Tested on in the next series: not listed separately
The series can be described thus: Binding affinity to Mn2+ using MnCl2 at 20 uM after 5 mins by spectrophotometry.
Conditions: not given
On to `Oc1cccc(CNc2ccccc2O)c1`, for which the outcome was inactive.
Consider `Oc1ccc(/C=C/c2cc(O)cc(O)c2)cc1` [RESVERATROL], for which the outcome was inactive.

Tested on in another series: not listed separately
The series can be described thus: Binding affinity to Mg2+ using MgSO4 at 20 uM after 5 mins by spectrophotometry.
Conditions: not given
Turning to `Oc1cccc(CNc2ccccc2O)c1`, the outcome was inactive.
On the same count and under the same terms, for `Oc1ccc(/C=C/c2cc(O)cc(O)c2)cc1` [RESVERATROL] the value was “inactive”.

Tested on in a further series: not listed separately
In words: Binding affinity to Cu2+ using CuCl2 at 20 uM after 5 mins by spectrophotometric titration assay.
Conditions: not given
With `Oc1cccc(CNc2ccccc2O)c1`, the outcome was Active.

Another series concerns the target Amyloid-beta precursor protein (Homo sapiens) (UniProt P05067). In words: Binding affinity to amyloid beta (1 to 40) (unknown origin) by tyrosine fluorimetric titration assay.
Conditions: not given
Take `Oc1cccc(CNc2ccccc2O)c1`: the Ka amounted to 1.55 ×10⁵ /M.
As to `Oc1ccc(/C=C/c2cc(O)cc(O)c2)cc1` [RESVERATROL], the Ka is 1.65 ×10⁵ /M.

Tested on in the next series: not listed separately
In words: Inhibition of Cu2+-amyloid beta (1 to 40) catalyzed generation of hydroxyl radical assessed as 7-hrdroxy-CCA formation at 2 equiv preincubated for 1 hr followed by CCA addition measured over 60 mins by fluorescence assay.
Conditions: not given
For orientation: inhibition means the share of the control response that was lost under treatment. Consider `Oc1cccc(CNc2ccccc2O)c1`, for which the inhibition amounted to 51.1%.
Same read-out and setting: for `Oc1ccc(/C=C/c2cc(O)cc(O)c2)cc1` [RESVERATROL] the value was 9%.

Tested on in the next series: not listed separately
The series can be described thus: Inhibition of Cu2+-amyloid beta (1 to 40) catalyzed generation of hydroxyl radical assessed as rate of radical formation per min at 2 equiv preincubated for 1 hr followed by CCA addition measured over 60 mins by CCA based fluorescence assay (reference value: 13 +/- 0.2 a.u.).
Conditions: not given
For `Oc1cccc(CNc2ccccc2O)c1`, the Activity turned out to be 5.4 a.u.
In the case of `Oc1ccc(/C=C/c2cc(O)cc(O)c2)cc1` [RESVERATROL], the Activity worked out at 11.2 a.u.

Tested on in another series: not listed separately
The series can be described thus: Antioxidant activity assessed as DPPH free radical scavenging activity after 30 mins by spectrophotometry. Type of series: physicochemical.
Conditions: not given
A general note: Loss of DPPH colour is used to gauge radical scavenging.
A word on the IC50: it is the concentration needed to halve the response being measured. Take `O=C1O[C@H]([C@@H](O)CO)C(O)=C1O` [ASCORBIC ACID]: the IC50 turned out to be 12.8 µM.
On the same count and under the same terms, the same measure for `Oc1cccc(CNc2ccccc2O)c1`: 5.87 µM; for `Oc1ccc(/C=C/c2cc(O)cc(O)c2)cc1` [RESVERATROL]: 17.8 µM.

Tested on in the next series: not listed separately
The series can be described thus: Ratio of resveratrol IC50 to compound IC50 for DPPH free radical scavenging activity.
Conditions: not given
Consider `O=C1O[C@H]([C@@H](O)CO)C(O)=C1O` [ASCORBIC ACID], for which the Ratio IC50 turned out to be 1.4.
Still for that read-out and setting: for `Oc1cccc(CNc2ccccc2O)c1` the value was 3.

Tested on in another series: not listed separately
In words: Antioxidant activity assessed as AAPH radical scavenging activity preincubated for 30 mins followed by AAPH addition measured after 60 mins by ORAC assay. Type of series: physicochemical.
Conditions: not given
For `O=C1O[C@H]([C@@H](O)CO)C(O)=C1O` [ASCORBIC ACID], the IC50 was determined as 62.2 µM.
For `Oc1cccc(CNc2ccccc2O)c1`, the IC50 is 1.24 µM.
Turning to `Oc1ccc(/C=C/c2cc(O)cc(O)c2)cc1` [RESVERATROL], the half-inhibitory concentration (IC50) came out at 1.7 µM.

Tested on in another series: not listed separately
In words: Ratio of resveratrol IC50 to compound IC50 for AAPH radical scavenging activity.
Conditions: not given
As for `O=C1O[C@H]([C@@H](O)CO)C(O)=C1O` [ASCORBIC ACID], the Ratio IC50 was found to be 0.02.
On the same count and under the same terms, the same measure for `Oc1cccc(CNc2ccccc2O)c1`: 1.4.

Tested on in a further series: not listed separately
In words: Inhibition of Cu2+-induced amyloid beta (1 to 40) aggregation at 100 uM preincubated for 5 mins followed by amyloid beta (1 to 40) addition measured after 18 days at pH 6.60 by thioflavin-T fluorescence assay.
Conditions: not given
On to `Oc1cccc(CNc2ccccc2O)c1`, for which the inhibition entry is “Active”.

Tested on in another series: not listed separately
The series can be described thus: Inhibition of Cu2+-induced amyloid beta (1 to 40) fibril aggregation assessed as remaining fibril aggregates at 100 uM preincubated for 5 mins followed by amyloid beta (1 to 40) addition measured after 3 days at pH 6.60 by thioflavin-T fluorescence assay.
Conditions: not given
`Oc1cccc(CNc2ccccc2O)c1`: the Activity came out at 45%.
On the same count and under the same terms, for `Oc1ccc(/C=C/c2cc(O)cc(O)c2)cc1` [RESVERATROL] the value was 25.9%.

Tested on in the next series: not listed separately
The series can be described thus: Inhibition of Cu2+-induced amyloid beta (1 to 40) fibril aggregation assessed as remaining fibril aggregates at 100 uM preincubated for 5 mins followed by amyloid beta (1 to 40) addition measured after 7 days at pH 6.60 by thioflavin-T fluorescence assay.
Conditions: not given
With `Oc1cccc(CNc2ccccc2O)c1`, the Activity was determined as 17.2%.
Same read-out and setting: the same measure for `Oc1ccc(/C=C/c2cc(O)cc(O)c2)cc1` [RESVERATROL]: 16.1%.

For the next series, the target named is Amyloid-beta precursor protein (Homo sapiens) (UniProt P05067). In words: Inhibition of self-induced amyloid beta (1 to 40) (unknown origin) fibril aggregation assessed as remaining fibril aggregates at 100 uM after 3 days at pH 6.60 by thioflavin-T fluorescence assay.
Chain of Amyloid-beta precursor protein (Homo sapiens) (P05067 whole entry): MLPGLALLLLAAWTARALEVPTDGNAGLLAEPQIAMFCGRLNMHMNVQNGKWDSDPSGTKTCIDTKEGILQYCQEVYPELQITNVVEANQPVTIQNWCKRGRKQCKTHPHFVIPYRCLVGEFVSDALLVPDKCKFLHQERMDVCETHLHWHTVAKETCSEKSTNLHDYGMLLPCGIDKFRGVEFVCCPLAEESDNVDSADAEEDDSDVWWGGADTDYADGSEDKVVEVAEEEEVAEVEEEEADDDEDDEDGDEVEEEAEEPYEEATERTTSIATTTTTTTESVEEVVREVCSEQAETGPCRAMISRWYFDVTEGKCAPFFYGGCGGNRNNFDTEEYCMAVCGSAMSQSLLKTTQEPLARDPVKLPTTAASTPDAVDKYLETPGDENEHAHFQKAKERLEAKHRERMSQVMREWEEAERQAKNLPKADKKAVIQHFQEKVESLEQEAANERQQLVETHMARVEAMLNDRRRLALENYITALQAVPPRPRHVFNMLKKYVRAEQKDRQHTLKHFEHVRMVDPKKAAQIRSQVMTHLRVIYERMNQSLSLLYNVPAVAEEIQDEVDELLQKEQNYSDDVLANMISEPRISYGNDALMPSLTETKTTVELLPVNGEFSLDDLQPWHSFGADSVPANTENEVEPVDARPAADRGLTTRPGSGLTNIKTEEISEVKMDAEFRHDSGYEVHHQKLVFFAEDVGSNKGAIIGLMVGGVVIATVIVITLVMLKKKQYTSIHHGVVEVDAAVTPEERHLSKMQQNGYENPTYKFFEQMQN
Conditions: not given
Consider `Oc1cccc(CNc2ccccc2O)c1`, for which the Activity came out at 8.2%.
On the same count and under the same terms, for `Oc1ccc(/C=C/c2cc(O)cc(O)c2)cc1` [RESVERATROL] the value was 7.48%.

A further series has the same target. In words: Inhibition of self-induced amyloid beta (1 to 40) (unknown origin) fibril aggregation assessed as remaining fibril aggregates at 100 uM after 7 days at pH 6.60 by thioflavin-T fluorescence assay.
Conditions: not given
As to `Oc1cccc(CNc2ccccc2O)c1`, the Activity is 6.65%.
In the case of `Oc1ccc(/C=C/c2cc(O)cc(O)c2)cc1` [RESVERATROL], the Activity is 4.25%.

Tested on in the next series: not listed separately
The series can be described thus: Inhibition of preformed Cu2+-induced amyloid beta (1 to 40) fibril aggregation assessed as remaining fibril aggregates at 100 uM after 4 days at pH 6.60 by thioflavin-T fluorescence assay.
Conditions: not given
Take `Oc1cccc(CNc2ccccc2O)c1`: the Activity amounted to 144%.
For `Oc1ccc(/C=C/c2cc(O)cc(O)c2)cc1` [RESVERATROL], the Activity is 239%.

Tested on in the next series: not listed separately
In words: Inhibition of preformed Cu2+-induced amyloid beta (1 to 40) fibril aggregation assessed as remaining fibril aggregates at 100 uM after 12 days at pH 6.60 by thioflavin-T fluorescence assay.
Conditions: not given
Turning to `Oc1cccc(CNc2ccccc2O)c1`, the Activity was 117%.
Still for that read-out and setting: the same measure for `Oc1ccc(/C=C/c2cc(O)cc(O)c2)cc1` [RESVERATROL]: 144%.

The target of the next series is Amyloid-beta precursor protein (Homo sapiens) (UniProt P05067). In words: Inhibition of preformed self-induced amyloid beta (1 to 40) (unknown origin) fibril aggregation assessed as remaining fibril aggregates at 100 uM after 4 days at pH 6.60 by thioflavin-T fluorescence assay.
Conditions: not given
Consider `Oc1cccc(CNc2ccccc2O)c1`, for which the Activity was found to be 11.7%.
On the same count and under the same terms, the same measure for `Oc1ccc(/C=C/c2cc(O)cc(O)c2)cc1` [RESVERATROL]: 100%.

The target is the same in a further series. The series can be described thus: Inhibition of preformed self-induced amyloid beta (1 to 40) (unknown origin) fibril aggregation assessed as remaining fibril aggregates at 100 uM after 12 days at pH 6.60 by thioflavin-T fluorescence assay.
Conditions: not given
`Oc1cccc(CNc2ccccc2O)c1`: the Activity worked out at 20.3%.
Take `Oc1ccc(/C=C/c2cc(O)cc(O)c2)cc1` [RESVERATROL]: the Activity came to 24.1%.

Tested on in a further series: not listed separately
In words: Induction of Cu2+-induced amyloid beta (1 to 40) fibril aggregation at 100 uM preincubated for 5 mins followed by amyloid beta (1 to 40) addition measured after 3 to 7 days by turbidity assay.
Conditions: not given
`Oc1cccc(CNc2ccccc2O)c1` showed an Activity of 47%.

Tested on in another series: not listed separately
In words: Toxicity in Tetrahymena thermophila assessed as reduction in cell viability after 48 hrs by MTT assay. Type of series: organism-based. Particulars: Tetrahymena thermophila cells, read-out: LD50. (In general: Tetrazolium dyes change colour on reduction, which living cells bring about.)
For `Oc1cccc(CNc2ccccc2O)c1`, the LC50 at 48 h worked out at 180 µM.
The same measure, in the same setting: for `Oc1ccc(/C=C/c2cc(O)cc(O)c2)cc1` [RESVERATROL] the value was 274 µM.

Tested on in another series: not listed separately
In words: Binding affinity to Cu2+ using CuCl2 after 5 mins by spectrophotometry.
Conditions: not given
In the case of `Oc1cccc(CNc2ccccc2O)c1`, the logKa was 13.1.
As for `Oc1ccc(/C=C/c2cc(O)cc(O)c2)cc1` [RESVERATROL], the logKa was 6.7.

Tested on in the next series: not listed separately
The series can be described thus: Ratio of ascorbic acid IC50 to compound IC50 for DPPH free radical scavenging activity.
Conditions: not given
Regarding `Oc1cccc(CNc2ccccc2O)c1`, the Ratio IC50 came to 2.

Tested on in another series: not listed separately
In words: Inhibition of Cu2+-induced amyloid beta (1 to 40) fibril aggregation at 100 uM preincubated for 5 mins followed by amyloid beta (1 to 40) addition measured after 18 days by turbidity assay.
Conditions: not given
As for `Oc1cccc(CNc2ccccc2O)c1`, the inhibition entry was “Active”.

Another series has as its target Amyloid-beta precursor protein (Homo sapiens) (UniProt P05067). The series can be described thus: Induction of self-induced amyloid beta (1 to 40) (unknown origin) fibril aggregation at 100 uM after 3 days by turbidity assay.
Conditions: not given
Consider `Oc1cccc(CNc2ccccc2O)c1`, for which the result was Active.
With `Oc1ccc(/C=C/c2cc(O)cc(O)c2)cc1` [RESVERATROL], the result was Active.

The next series has the same target. The series can be described thus: Inhibition of self-induced amyloid beta (1 to 40) (unknown origin) fibril aggregation at 100 uM after 7 to 18 days by turbidity assay.
Conditions: not given
Turning to `Oc1cccc(CNc2ccccc2O)c1`, the inhibition result was “Active”.

Tested on in another series: not listed separately
The series can be described thus: Inhibition of preformed Cu2+-induced amyloid beta (1 to 40) fibril aggregation at 100 uM after 4 to 12 days by turbidity assay relative to control.
Conditions: not given
On to `Oc1cccc(CNc2ccccc2O)c1`, for which the inhibition entry is “Active”.
On to `Oc1ccc(/C=C/c2cc(O)cc(O)c2)cc1` [RESVERATROL], for which the inhibition result is “inactive”.

A further series deals with Amyloid-beta precursor protein (Homo sapiens) (UniProt P05067). In words: Induction of preformed self-induced amyloid beta (1 to 40) (unknown origin) fibril aggregation at 100 uM after 4 days by turbidity assay.
Conditions: not given
Turning to `Oc1cccc(CNc2ccccc2O)c1`, the outcome was Active.

A further series has the same target. The series can be described thus: Inhibition of preformed self-induced amyloid beta (1 to 40) (unknown origin) fibril aggregation at 100 uM after 12 days by turbidity assay relative to control.
Conditions: not given
`Oc1cccc(CNc2ccccc2O)c1` had an inhibition of 46%.

For the origin of these results see ChEMBL document CHEMBL3817831, “Ionophoric polyphenols selectively bind Cu(2+), display potent antioxidant and anti-amyloidogenic properties, and are non-toxic toward Tetrahymena thermophila” (Bioorg Med Chem, 2016).
